Consider one molecule from US20220364065A1, “COMPOSITION FOR REMOVING PLURIPOTENT STEM CELLS AND METHOD OF REMOVING PLURIPOTENT STEM CELLS” (NATIONAL UNIVERSITY CORPORATION HOKKAIDO UNIVERSITY, priority 2018, published 2022).

Data set [1] deals with mouse iPS cells. The data set is described as follows: MTT assay, viability of mouse iPS cells. Conditions: 3 days. Format: cell-based. The method, then:
(§1) One thousand cells were seeded into each well of a 96-well plate and cultured for 3 days in medium (200 μL/well) supplemented with only DMSO at a final concentration of 0.1% or in medium (200 μL/well) supplemented with each dihydroorotate dehydrogenase (DHODH) inhibitor. The medium used was the appropriate culture solution for each cell as described above.
(§2) The concentration of each DHODH inhibitor added to the medium was a 2-fold dilution series starting from 200 μM.
(§3) As a background, a well containing medium only was prepared, and as a control, a well was also prepared in which medium containing Triton X-100 (final concentration 0.2%) was added to the cells.
(§4) Then, 5 μL of MTT (5 mg/ml, manufactured by Wako) was added to each well, and the cells were incubated at 37° C. for 2 to 3 hours. Then, the medium was replaced with 100 μL of DMSO to lyse the cells, and the absorbance of these cell lysates at a wavelength of 570 nm was measured with a microplate reader (manufactured by Bio-Rad, Benchmark model). In addition, based on the obtained absorbance, the cell viability was calculated by the following formula.
Cell viability (%)=(absorbance in wells with DHODH inhibitor-absorbance in background)/(absorbance in control-absorbance in background)×100.
(In general: Formazan colour is commonly taken as a measure of viable cells.)

Data set [2] has as its system mouse neural stem cells and mouse ES cells. In words: Mixed culture of neural stem cells and ES cells, Nestin/Nanog immunostaining. The following applies: 10 μM BRQ, 3 days. Format: cell-based. How it is done: (§5) The cells were fixed and immunostained as described in Kondo et al., Genes Dev. 2004, Vol. 18, Issue 23, pp. 2963-72. […] For the culture of mNSCs, PDL+fibronectin-coated ones were used (see Johe KK et al., Genes Dev. 1996, Vol. 10, Issue 24, pp. 3129 to 3140). For the culture of ES cells and iPS cells, gelatin-coated ones were used.
(§6) For immunostaining, the cells were first washed once with PBS, then fixed by adding 4% paraformaldehyde and incubating for 10 minutes at room temperature. The cells were replaced with PBS containing 0.3% Triton X100 and incubated for 5 minutes at room temperature, then replaced with PBS containing 0.3% Triton X100 and 10% FCS (blocking solution) and incubated for 30 minutes at room temperature. The solution was replaced with primary antibody solution diluted in blocking solution and incubated for 2 hours at room temperature. After washing three times with PBS, secondary antibody and DAPI solution diluted with blocking solution were added and incubated at room temperature for 2 hours. After washing three times with PBS, the cells were sealed with anti-fading agent (manufactured by DAKO, code number: 53023) and observed under a microscope. […] In addition, fluorescence images were acquired with an Axiolmager M1 microscope (manufactured by Carl Zeiss).
The cells were then analyzed by immunostaining as described above.

Data set [3] has as its system PA6: mouse bone marrow-derived stromal cells. In words: MTT assay, viability of PA6 cells. It is filed as cell-based. Conditions: 10 μM BRQ, 3 days. How it is done:
as §1, §2, §3, §4
(§7) Cell viability (%)=(absorbance in wells with DHODH inhibitor-absorbance in background)/(absorbance in control-absorbance in background)×100. […]

The test system of data set [4] is NT2: human embryonal carcinoma (EC) cells. The data set is described as follows: MTT assay, viability of NT2 cells. Conditions: 10 μM BRQ, 3 days. Format: cell-based. How it is done: as §1, §2, §3, §4, §7
Data set [5] is described as follows: Side effects in treated tumor-bearing mice. Format: in vivo. Conditions: NOD/SCID mice, BRQ intraperitoneally.
In another data set the test system is mouse neural stem cells. The data set is described as follows: Sox2 immunostaining, neural stem cells. Format: cell-based. The following applies: 10 μM BRQ, 24 hours. How it is done:
as §5
as §6, with “Zeiss). […]” for “Zeiss).”

Data set [6] concerns mouse iPS cells. In words: Immunostaining of pluripotent stem cell markers (Sox2, Nanog, Oct4), iPS cells. Format: cell-based. The method, then:
(§8) The cells were fixed and immunostained as described in Kondo et al., Genes Dev. […] For the culture of ES cells and iPS cells, gelatin-coated ones were used.
(§9) For immunostaining, the cells were first washed once with PBS, then fixed by adding 4% paraformaldehyde and incubating for 10 minutes at room temperature. The cells were replaced with PBS containing 0.3% Triton X100 and incubated for 5 minutes at room temperature, then replaced with PBS containing 0.3% Triton X100 and 10% FCS (blocking solution) and incubated for 30 minutes at room temperature. The solution was replaced with primary antibody solution diluted in blocking solution and incubated for 2 hours at room temperature. After washing three times with PBS, secondary antibody and DAPI solution diluted with blocking solution were added and incubated at room temperature for 2 hours. […] Note that the cell nuclei were visualized by contrast staining with DAPI solution (1 μg/mL, manufactured by Dojindo, product code: D523). In addition, fluorescence images were acquired with an Axiolmager M1 microscope (manufactured by Carl Zeiss).
(§10) LMB is a specific inhibitor of CRM1, also known as Exportin 1.

Data set [7] has as its system mouse ES cells. In words: Quantitative RT-PCR of Sox2, Oct4, Nanog, ES cells. It is filed as cell-based. The following applies: 10 μM BRQ, 2 days. How it is done:
First, total RNA was prepared from cells using the RNeasy kit (manufactured by Qiagen), and cDNA was synthesized using the Transcriptor First Strand cDNA Synthesis Kit (manufactured by Roche Applied Science).
Then, the cDNA was used as a template, and Thunderbird Cyber qPCR Mix (manufactured by TOYOBO) and Step One Plus (manufactured by Thermo Fisher Scientific) were used to perform real-time PCR. The reaction conditions were set at 95° C. for 15 seconds and 60° C. for 30 seconds for 40 cycles, and the oligonucleotide primers shown below were used to amplify each target gene.
Note that the expression level of each target gene detected in this way was normalized by the relative quantification method (delta delta Ct method) based on the expression level of 18S ribosomal RNA.

In data set [8] the test system is mouse iPS cells. In words: Teratoma formation from pretreated iPS cells in NOD/SCID mice. Format: in vivo. Conditions: iPS cells pretreated 2 days with 10 μM BRQ, subcutaneous in NOD/SCID mice, 4 weeks. The method, then:
The viable cells (1×10^6) were suspended in 50 μl of Matrigel (manufactured by BD Biosciences) and injected subcutaneously into the buttocks of 5-8-week-old NOD/SCID mice anesthetized with 10% pentobarbital. Four weeks after the injection, the mice were sacrificed to death, and the tumors were removed and photographed for their size measurement according to the method described in Tsukamoto Y, et al., Stem Cells. 2016; 34(8): 2016-2025. Based on the measurement values obtained, the volume of the tumors was calculated by the following formula.
Volume of tumor (cm^3)=major diameterxminor diameterxminor diameter×½.
Then, 4 weeks after transplantation, the tumors were removed and observed.

Data set [9] deals with mouse ES cells. In words: Immunostaining of pluripotent stem cell markers (Sox2, Nanog, Oct4), ES cells. It is filed as cell-based. The method, then:
as §8, §9, §10

[10] abbreviates: iPS cells, 2 days, BRQ 10 μM (ZVAD 100 nM where added).
Where [11] appears, read: mouse iPS cells, 10 μM BRQ, 24 hours.
Where [12] appears, read: ES cells, 2 days, BRQ 10 μM (ZVAD 100 nM where added).
Where [13] appears, read: mouse ES cells, 10 μM BRQ, 24 hours.

Regarding `Cc1c(-c2ccc(-c3ccccc3F)cc2)nc2ccc(F)cc2c1C(=O)O` [BRQ, 6-fluoro-2-(2′-fluoro-1,1′-biphenyl-4-yl)-3-methyl-4-quinoline-sodium carboxylate], the “cytotoxic activity (viability, MTT assay)” value was “significant cytotoxic activity” with mouse iPS cells [1] (10 μM BRQ), “significant cytotoxic activity” in the data set with mouse iPS cells [1] (2-fold dilution series starting from 200 μM), “no significant cytotoxic activity” in [3] and “significant cytotoxic activity” in [4]. In addition, the “ES cells (Nanog) in mixed culture” value in [2] (ES cell medium) is given as “lost”. Further, in [2] (mixed with ES cells), the “cytotoxicity to neural stem cells (Nestin) in mixed culture” value is reported as “no obvious cytotoxicity”. Also, in data set [5], the “side effects in treated mice” value is reported as “no visible side effects”. For the same molecule, the “changes in proliferation/death and Sox2 expression” value with mouse neural stem cells was “no similar changes were observed”. Moreover, the Nanog-positive cells in the data set with mouse iPS cells [6] (setting [10]) is given as 0%; in the data set with mouse ES cells [9] (setting [12]), 6%. Moreover, the Oct4-positive cells with mouse iPS cells [6] (setting [10]) was 0%; with mouse ES cells [9] (setting [12]) it was 2%. Besides, the “cells in which expression of Sox2 was not observed” value with mouse iPS cells [6] (setting [11]) and in the data set on mouse ES cells [9] (setting [13]) was “about 30%” each time. For the same molecule, the “inhibition of cell proliferation or cell death” value with mouse iPS cells [6] (setting [11]) and in the data set on mouse ES cells [9] (setting [13]) was “inhibition of cell proliferation or cell death was already observed” each time. For the same molecule, the “subcellular localization of Nanog” value is given as “distributed in the cytoplasm” in the data set on mouse iPS cells [6] (mouse iPS cells, 10 μM BRQ, 2 days) and “distributed in the cytoplasm” with mouse ES cells [9] (mouse ES cells, 10 μM BRQ, 2 days). Besides, the “expression levels of marker genes (Sox2, Oct4, Nanog)” value with mouse ES cells [7] is listed as “generally decreased”. For the same molecule, the “tumor formation from pretreated cells” value in the data set on mouse iPS cells [8] was “did not proliferate”.
